Reference: patent publication US11180444B2, “Polyimino ketoaldehydes” (NOVUM SPERO LTD., priority 2017, dated 2021)
Entries after “also recorded” stand apart in the source; their conditions may differ.

How the values were obtained:
[1] = tested on: Avian Pathogenic Escherichia coli multi-resistant strain; experiment: Inhibition zones, disc test; format: cell-based
[2] = tested on: gram-positive and gram-negative bacteria including multi-resistant bacteria; experiment: In vitro testing of antibacterial properties; format: cell-based

Work on “1-amino-tetratriacontyl-henicosa-20-on-21-al [CM]” yielded an Inhibition zone ([1]; 10 μL of solution (350 μg/1 μL) per disc) of 8 mm, an Inhibition zone ([1]; 15 μL of solution (350 μg/1 μL) per disc) of 9 mm and an Inhibition zone ([1]; 20 μL of solution (350 μg/1 μL) per disc) of 10 mm. The “Inhibitory activity against the strain (in words)” value ([1]; compared with antibiotics in their standard dose) was “has an effect on the inhibition; also recorded: shows inhibitory activity” and the “Antibacterial properties (in words)” value [2] was “shows antibacterial properties”.

`CC1(C)S[C@@H]2[C@H](NC(=O)[C@H](N)c3ccc(O)cc3)C(=O)N2[C@H]1C(=O)O` [Amoxicillin, reference compound] showed a zone of inhibition at 25 µg/disc ([1]; Escherichia coli, 25 μg per disc) of 0 mm.

For `Cc1cc(C)nc(NS(=O)(=O)c2ccc(N)cc2)n1` [Sulfadimidine, reference compound], the zone of inhibition at 300 µg/disc ([1]; Escherichia coli, 300 μg per disc) was 0 mm.

With `CN(C)[C@@H]1C(O)=C(C(N)=O)C(=O)[C@@]2(O)C(O)=C3C(=O)c4c(O)cccc4[C@@](C)(O)[C@H]3C[C@@H]12` [Tetracycline, reference compound] the zone of inhibition at 30 µg/disc ([1]; Escherichia coli, read-out: Inhibition zone) was 0 mm.

For “Trimethoprim sulphate [reference compound]”, the Inhibition zone ([1]; 1.25 μg + 23.75 μg per disc) was 0 mm.
